Experimental data as given in patent EP4759807A1, “PROTEOLYSIS TARGETING CHIMERA COMPOUND FOR DEGRADING IRAK4 AND USE THEREOF” (Shenzhen Zhongge Biological Technology Co., Ltd., priority 2023, dated 2025).
Counter-ions that a name gives are not always drawn. Like-named read-outs stand apart in the source and are kept apart here.

Molecular target: T1, IRAK4 (Homo sapiens, UniProt Q9NWZ3)
T1 sequence (Q9NWZ3 1-460): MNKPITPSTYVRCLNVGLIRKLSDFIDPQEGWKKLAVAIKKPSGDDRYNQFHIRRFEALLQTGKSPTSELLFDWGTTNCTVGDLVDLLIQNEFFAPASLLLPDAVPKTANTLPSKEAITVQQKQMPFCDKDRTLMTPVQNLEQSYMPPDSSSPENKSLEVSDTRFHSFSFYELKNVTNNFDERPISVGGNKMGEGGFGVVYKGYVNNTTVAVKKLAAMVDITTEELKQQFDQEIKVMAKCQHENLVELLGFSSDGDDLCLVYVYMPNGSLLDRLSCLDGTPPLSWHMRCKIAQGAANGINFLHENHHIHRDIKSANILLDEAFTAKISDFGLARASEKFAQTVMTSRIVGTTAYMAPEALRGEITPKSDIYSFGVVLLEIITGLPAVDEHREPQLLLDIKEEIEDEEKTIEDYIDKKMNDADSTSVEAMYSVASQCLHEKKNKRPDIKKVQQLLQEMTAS
Assay: Hibit fluorescence detection of proteolysis (IRAK4-HiBiT in HEK293T cells)
Assay type: cell-based
Set-up: host or cells: HEK293T (ATCC)
Summary of the method: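 Degradation read-out: luminescence from lytic HiBiT detection (15 min, room temperature) after 24 h compound exposure (37 °C, 5% CO2) of HEK293T cells transiently expressing IRAK4 fused to a HiBiT tag. Data fitted to a bell-shaped four-parameter model giving two EC50 values.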

[1] = IRAK4-HiBiT, HEK293T cells, 24 h
[2] = IRAK4-HiBiT, HEK293T cells, 24 h, read-out: DC50

Compound | Dmax (HEK-293T) | DC50 [1] | DC50 [2] | Dmax [1]
Cn1c(=O)n(C2CCC(=O)NC2=O)c2cccc(N3CCC4(CCN(C[C@H]5CC[C@H](n6cc(-n7cc(-c8cnn9ccc(N%10CCS(=O)(=O)CC%10)nc89)nn7)c(C(F)F)n6)CC5)CC4)CC3)c21 (stereo partly drawn) [Example 112] | > 80% | < 0.5 nM | – | –
Cn1c(=O)n(C2CCC(=O)NC2=O)c2cccc(N3CCC(N4CCN(C[C@H]5CC[C@H](n6cc(-n7cc(-c8cnn9ccc(NCC%10CC%10)nc89)nn7)c(C(F)F)n6)CC5)CC4)CC3)c21 (stereo partly drawn) [Example 114] | > 80% | < 0.5 nM | – | –
Cn1c(=O)n(C2CCC(=O)NC2=O)c2cccc(N3CCN(C4CCN(C[C@H]5CC[C@H](n6cc(-n7cc(-c8cnn9ccc(N%10CCC[C@H](N)C%10)nc89)nn7)c(C(F)F)n6)CC5)CC4)CC3)c21 (stereo partly drawn) [Example 117, 3-{4-[4-(1-{[(1S,4r)-4-[3-(difluoromethyl)-4-(4-{5-[(3S)-3-aminohexahydropyridin-1-yl]pyrazolo[1,5-a]pyrimidin-3-yl}-1,2,3-triazol-1-yl)pyrazol-1-yl]cyclohexyl]methyl}hexahydropyridin-4-yl)piperazin-1-yl]-3-methyl-2-oxobenzo[d]imidazol-1-yl}hexahydropyridine-2,6-dione hydrochloride] | > 80% | 1 to 5 nM | – | –
Cn1c(=O)n(C2CCC(=O)NC2=O)c2cccc(N3CCC4(CCN(C[C@H]5CC[C@H](n6cc(-n7cc(-c8cnn9ccc(N%10CCC(C)(O)CC%10)nc89)nn7)c(C(F)F)n6)CC5)CC4)CC3)c21 (stereo partly drawn) [Example 121] | > 80% | < 0.5 nM | – | –
Cn1c(=O)n(C2CCC(=O)NC2=O)c2cccc(N3CCC4(CCN(C[C@H]5CC[C@H](n6cc(-n7cc(-c8cnn9ccc(N%10CCNCC%10)nc89)nn7)c(C(F)F)n6)CC5)CC4)CC3)c21 (stereo partly drawn) [Example 129, 3-(4-(9-(((1r,4r)-4-(3-(difluoromethyl)-4-(4-(5-(piperazin-1-yl)pyrazolo[1,5-a]pyrimidin-3-yl)-1H-1,2,3-triazol-1-yl)-1H-pyrazol-1-yl)cyclohexyl)methyl)-3,9-diazaspiro[5.5]undecan-3-yl)-3-methyl-2-oxo-2,3-dihydro-1H-benzo[d]imidazol-1-yl)piperidine-2,6-dione dihydrochloride] | > 80% | < 0.5 nM | – | –
Cn1c(=O)n(C2CCC(=O)NC2=O)c2cccc(N3CCC4(CCN(C[C@H]5CC[C@H](n6cc(-n7cc(-c8cnn9ccc(N%10CCNCC%10)nc89)nn7)c(C(F)F)n6)CC5)CC4)C3)c21 (stereo partly drawn) [Example 130, 3-(4-(8-(((1r,4r)-4-(3-(difluoromethyl)-4-(4-(5-(piperazin-1-yl)pyrazolo[1,5-a]pyrimidin-3-yl)-1H-1,2,3-triazol-1-yl)-1H-pyrazol-1-yl)cyclohexyl)methyl)-2,8-diazaspiro[4.5]dec-2-yl)-3-methyl-2-oxo-2,3-dihydro-1H-benzo[d]imidazol-1-yl)piperidine-2,6-dione dihydrochloride] | > 80% | 0.5 to 1 nM | – | –
Cl.Cn1c(=O)n(C2CCC(=O)NC2=O)c2cccc(N3CCN(C4CCN(C[C@H]5CC[C@H](n6cc(-n7cc(-c8cnn9ccc(N%10CCNCC%10)nc89)nn7)c(C(F)F)n6)CC5)CC4)CC3)c21 (stereo partly drawn) [Example 131, 3-(4-(4-(1-(1r,4r)-4-(3-difluoromethyl)-4-(4-(5-(piperazin-1-yl)pyrazolo[1,5-a]pyrimidin-3-yl)-1H-1,2,3-triazol-1-yl)-1H-pyrazol-1-yl)cyclohexyl)methyl)piperidin-4-yl)piperazin-1-yl)-3-methyl-2-oxo-2,3-dihydro-1H-benzoimidazol-1-yl)piperidine-2,6-dione hydrochloride] | – | – | 0.5 to 1 nM | –
Cl.Cn1c(=O)n(C2CCC(=O)NC2=O)c2cccc(N3CCN(C4CCN(C[C@H]5CC[C@H](n6cc(-n7cc(-c8cnn9ccc(N%10CCNCC%10)nc89)nn7)c(C(F)F)n6)CC5)CC4)CC3)c21 (stereo partly drawn) [Example 131] | – | – | – | A (Dmax ≥ 80%)
Cn1c(=O)n(C2CCC(=O)NC2=O)c2cccc(N3CCN(C4CCN(C[C@H]5CC[C@H](n6cc(-n7cc(-c8cnn9ccc(NCCC(C)(C)O)nc89)nn7)c(C(F)F)n6)CC5)CC4)CC3)c21 (stereo partly drawn) [Example 133] | > 80% | < 0.5 nM | – | –
Cn1c(=O)n(C2CCC(=O)NC2=O)c2cccc(N3CCC4(CCN(C[C@H]5CC[C@H](n6cc(-n7cc(-c8cnn9ccc(NCCC(C)(C)O)nc89)nn7)c(C(F)F)n6)CC5)C4)CC3)c21 (stereo partly drawn) [Example 134] | > 80% | < 0.5 nM | – | –
Cn1c(=O)n(C2CCC(=O)NC2=O)c2cccc(N3CCC4(CCN(CC5CCC(n6cc(-n7cc(-c8cnn9ccc(N%10CCC(O)CC%10)nc89)nn7)c(C(F)F)n6)CC5)CC4)C3)c21 (stereo not drawn) [Example 137, 3-(4-(8-(((1r,4r)-4-(3-(difluoromethyl)-4-(4-(5-(4-hydroxypiperidin-1-yl))pyrazolo[1,5-a]pyrimidin-3-yl)-1H-1,2,3-triazol-1-yl)-1H-pyrazol-1-yl)cyclohexyl)methyl)-2,8-diazaspiro[4.5]dec-2-yl)-3-methyl-2-oxo-2,3-dihydro-1H-benzo[d]imidazol-1-yl)piperidine-2,6-dione] | – | – | < 0.5 nM | A (Dmax ≥ 80%)
Cn1c(=O)n(C2CCC(=O)NC2=O)c2cccc(N3CCN(C4CCN(C[C@H]5CC[C@H](n6cc(-n7cc(-c8cnn9ccc(N%10CCC(O)CC%10)nc89)nn7)c(C(F)F)n6)CC5)CC4)CC3)c21 (stereo partly drawn) [Example 138] | > 80% | < 0.5 nM | – | –
Cn1c(=O)n(C2CCC(=O)NC2=O)c2cccc(N3CCC4(CCN(C[C@H]5CC[C@H](n6cc(-n7cc(-c8cnn9ccc(N%10CCC[C@H](O)C%10)nc89)nn7)c(C(F)F)n6)CC5)CC4)C3)c21 (stereo partly drawn) [Example 143] | > 80% | < 0.5 nM | – | –
Cn1c(=O)n(C2CCC(=O)NC2=O)c2cccc(N3CCN(C4CCN(C[C@H]5CC[C@H](n6cc(-n7cc(-c8cnn9ccc(N[C@H]%10CCCC[C@H]%10O)nc89)nn7)c(C(F)F)n6)CC5)CC4)CC3)c21 (stereo partly drawn) [Example 149] | > 80% | < 0.5 nM | – | –
Cn1c(=O)n(C2CCC(=O)NC2=O)c2cccc(N3CCC(N4CCN(C[C@H]5CC[C@H](n6cc(-n7cc(-c8cnn9ccc(N%10CCC[C@H](N)C%10)nc89)nn7)c(C(F)F)n6)CC5)CC4)CC3)c21 (stereo partly drawn) [Example 150, 3-(4-(4-(1R,4R)-4-(4-(4-(5-(S)-3-aminopiperidin-1-yl)pyrazolo[1,5-a]pyrimidin-3-yl)-1H-1,2,3-triazol-1-yl)-3-(difluoromethyl)-1H-pyrazol-1-yl)cyclohexyl)methyl)piperazin-1-yl)piperidin-1-yl)-3-methyl-2-oxo-2,3-dihydro-1H-benzoimidazol-1-yl)piperidine-2,6-dione hydrochloride] | > 80% | < 0.5 nM | – | –
Cn1c(=O)n(C2CCC(=O)NC2=O)c2cccc(N3CCC4(CCN(C[C@H]5CC[C@H](n6cc(-n7cc(-c8cnn9ccc(N[C@@H]%10CCCC[C@@H]%10O)nc89)nn7)c(C(F)F)n6)CC5)CC4)C3)c21 (stereo partly drawn) [Example 152] | > 80% | < 0.5 nM | – | –
C[C@H]1CN(c2cccc3c2n(C)c(=O)n3C2CCC(=O)NC2=O)CCN1C[C@H]1CC[C@H](n2cc(-n3cc(-n4ccc5cc(C(N)=O)cnc54)nn3)c(C(F)F)n2)CC1 (stereo partly drawn) [Example 156] | > 80% | < 0.5 nM | – | –
Cn1c(=O)n(C2CCC(=O)NC2=O)c2cccc(N3CCN(C[C@H]4CC[C@H](n5cc(-n6cc(-c7cnn8ccc(N[C@@H]9CCCC[C@@H]9O)nc78)nn6)c(C(F)F)n5)CC4)CC3)c21 (stereo partly drawn) [Example 268] | 70 to 80% | 0.5 to 1 nM | – | –
C[C@H]1CN(c2cccc3c2n(C)c(=O)n3C2CCC(=O)NC2=O)CCN1C[C@H]1CC[C@H](n2cc(-n3cc(-c4cnn5ccc(N6CCC(C)(O)CC6)nc45)nn3)c(C(F)F)n2)CC1 (stereo partly drawn) [Example 284] | 70 to 80% | < 0.5 nM | – | –
